In ChEMBL document CHEMBL1201862, “PubChem BioAssay data set” (2004):
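48-hour exposure; five concentrations; linearly interpolated endpoints. The concentration for 50% growth inhibition is given as GI50.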 The source made the active and inactive calls. Rule as the data show it: active = GI50 up to about 1.1 µM and inactive = higher.

Key:
Experiment in all cases: NCI-60 cell line screen, 48 h
UO-31 = system: UO-31
786-0 = system: 786-0
HCC 2998 = system: HCC 2998
A549 = system: A549
LOX IMVI = system: LOX IMVI
EKVX = system: EKVX
OVCAR-5 = system: OVCAR-5
HCT-15 = system: HCT-15
CAKI-1 = system: CAKI-1
ACHN = system: ACHN
M14 = system: M14
MDA-MB-231 = system: MDA-MB-231
COLO 205 = system: COLO 205
NCI-H460 = system: NCI-H460
DU-145 = system: DU-145
KM12 = system: KM12
HT-29 = system: HT-29
U-251 = system: U-251
MCF7 = system: MCF7

SMILES | GI50 (UO-31) | GI50 (786-0) | GI50 (HCC 2998) | GI50 (A549) | GI50 (LOX IMVI) | GI50 (EKVX) | GI50 (OVCAR-5) | GI50 (HCT-15) [µM] | GI50 (CAKI-1) | GI50 (ACHN) | GI50 (M14) | GI50 (MDA-MB-231) | GI50 (COLO 205) | GI50 (NCI-H460) | GI50 (DU-145) | GI50 (KM12) | GI50 (HT-29) | GI50 (U-251) | GI50 (MCF7)
COc1cc2nn(-c3ccccc3)nc2c2nonc12 | > 100 µM (inactive) | 91.6 µM (inactive) | > 100 µM (inactive) | > 100 µM (inactive) | 38.8 µM (inactive) | > 100 µM (inactive) | > 100 µM (inactive) | > 100 | > 100 µM (inactive) | > 100 µM (inactive) | > 100 µM (inactive) | > 100 µM (inactive) | > 100 µM (inactive) | > 100 µM (inactive) | > 100 µM (inactive) | > 100 µM (inactive) | > 100 µM (inactive) | – | –
NN/C(=N\S(=O)(=O)c1cc(Cl)c(Oc2ccc([N+](=O)[O-])cc2Cl)c(Cl)c1)Nc1ccc(Cl)cc1 | 17.6 µM (inactive) | 18.2 µM (inactive) | – | 17.9 µM (inactive) | 21 µM (inactive) | 21.8 µM (inactive) | 24.4 µM (inactive) | 19.2 | 17.9 µM (inactive) | 23.7 µM (inactive) | 17.4 µM (inactive) | 18.4 µM (inactive) | 15.6 µM (inactive) | 15.8 µM (inactive) | 19.2 µM (inactive) | 18.8 µM (inactive) | 19.1 µM (inactive) | 16.2 µM (inactive) | 22.6 µM (inactive)
C[N+](C)(CCCn1ccnc1[N+](=O)[O-])CCCn1ccnc1[N+](=O)[O-] | > 100 µM (inactive) | > 100 µM (inactive) | – | > 100 µM (inactive) | > 100 µM (inactive) | > 100 µM (inactive) | > 100 µM (inactive) | > 100 | > 100 µM (inactive) | > 100 µM (inactive) | > 100 µM (inactive) | > 100 µM (inactive) | > 100 µM (inactive) | > 100 µM (inactive) | > 100 µM (inactive) | > 100 µM (inactive) | > 100 µM (inactive) | > 100 µM (inactive) | > 100 µM (inactive)
c1ccc2c(CC3NCCN3)cccc2c1 | – | > 100 µM (inactive) | – | > 100 µM (inactive) | > 100 µM (inactive) | > 100 µM (inactive) | > 100 µM (inactive) | > 100 | > 100 µM (inactive) | > 100 µM (inactive) | > 100 µM (inactive) | > 100 µM (inactive) | > 100 µM (inactive) | > 100 µM (inactive) | > 100 µM (inactive) | > 100 µM (inactive) | > 100 µM (inactive) | > 100 µM (inactive) | > 100 µM (inactive)
O=C(O)c1cc(Cl)cc(Cc2cc(Cl)cc(C(=O)O)c2O)c1O | > 100 µM (inactive) | > 100 µM (inactive) | – | > 100 µM (inactive) | > 100 µM (inactive) | > 100 µM (inactive) | > 100 µM (inactive) | > 100 | > 100 µM (inactive) | > 100 µM (inactive) | > 100 µM (inactive) | > 100 µM (inactive) | > 100 µM (inactive) | > 100 µM (inactive) | > 100 µM (inactive) | > 100 µM (inactive) | > 100 µM (inactive) | > 100 µM (inactive) | > 100 µM (inactive)
CC1(C)OC[C@@H]([C@H](C=O)OCc2ccccc2)O1 | > 100 µM (inactive) | > 100 µM (inactive) | – | > 100 µM (inactive) | > 100 µM (inactive) | > 100 µM (inactive) | > 100 µM (inactive) | > 100 | – | > 100 µM (inactive) | > 100 µM (inactive) | > 100 µM (inactive) | > 100 µM (inactive) | – | > 100 µM (inactive) | > 100 µM (inactive) | > 100 µM (inactive) | > 100 µM (inactive) | > 100 µM (inactive)
CCOC(=O)/C(C#N)=N\Nc1ccc(-n2c(C)nc3ccc(Br)cc3c2=O)cc1 | 30.5 µM (inactive) | 83.9 µM (inactive) | – | 50.2 µM (inactive) | 36.1 µM (inactive) | 87.1 µM (inactive) | > 100 µM (inactive) | 47.9 | > 100 µM (inactive) | > 100 µM (inactive) | 69.5 µM (inactive) | > 100 µM (inactive) | 58.3 µM (inactive) | 44.7 µM (inactive) | 57.4 µM (inactive) | 40.3 µM (inactive) | 69.5 µM (inactive) | 91.2 µM (inactive) | 72.1 µM (inactive)
CC(C)OC1=C(CC2(C)OCCO2)C(=O)C12OCCO2 | > 100 µM (inactive) | > 100 µM (inactive) | – | > 100 µM (inactive) | > 100 µM (inactive) | > 100 µM (inactive) | > 100 µM (inactive) | > 100 | > 100 µM (inactive) | > 100 µM (inactive) | > 100 µM (inactive) | > 100 µM (inactive) | > 100 µM (inactive) | > 100 µM (inactive) | > 100 µM (inactive) | > 100 µM (inactive) | > 100 µM (inactive) | > 100 µM (inactive) | > 100 µM (inactive)
N#Cc1c(Cl)cccc1Oc1ccc(S(=O)(=O)/N=C(\NN)Nc2ccc(Cl)cc2)cc1 | 25.5 µM (inactive) | 23.8 µM (inactive) | – | 31.9 µM (inactive) | 17.5 µM (inactive) | 23.3 µM (inactive) | 28.5 µM (inactive) | 34.4 | 33.3 µM (inactive) | 31.9 µM (inactive) | 22.9 µM (inactive) | 27.4 µM (inactive) | 15.6 µM (inactive) | 19.2 µM (inactive) | 25.5 µM (inactive) | 19.5 µM (inactive) | 30.3 µM (inactive) | 32 µM (inactive) | 35.7 µM (inactive)
FC1C2=C(SC1(F)F)C1CCC2C1 (stereo not drawn) | > 100 µM (inactive) | > 100 µM (inactive) | – | > 100 µM (inactive) | > 100 µM (inactive) | > 100 µM (inactive) | > 100 µM (inactive) | > 100 | > 100 µM (inactive) | > 100 µM (inactive) | > 100 µM (inactive) | > 100 µM (inactive) | > 100 µM (inactive) | > 100 µM (inactive) | > 100 µM (inactive) | > 100 µM (inactive) | > 100 µM (inactive) | – | > 100 µM (inactive)
N#Cc1nc(-c2ccccc2O)oc1N | – | 70.1 µM (inactive) | – | 63.5 µM (inactive) | 53.7 µM (inactive) | 48.5 µM (inactive) | > 100 µM (inactive) | 43.5 | 36.9 µM (inactive) | > 100 µM (inactive) | > 100 µM (inactive) | > 100 µM (inactive) | – | – | > 100 µM (inactive) | 42 µM (inactive) | > 100 µM (inactive) | > 100 µM (inactive) | 37.1 µM (inactive)
Cc1ccc2c(=O)c(C(=O)N(CCO)CCO)c[nH]c2n1 | > 100 µM (inactive) | > 100 µM (inactive) | – | > 100 µM (inactive) | > 100 µM (inactive) | > 100 µM (inactive) | > 100 µM (inactive) | > 100 | > 100 µM (inactive) | > 100 µM (inactive) | > 100 µM (inactive) | > 100 µM (inactive) | > 100 µM (inactive) | > 100 µM (inactive) | > 100 µM (inactive) | > 100 µM (inactive) | > 100 µM (inactive) | > 100 µM (inactive) | > 100 µM (inactive)
